Earlier results in patent publication US20070196528A1, “Cosmetic composition based on caper flower bud extract” (GATTEFOSSE S.A.S., priority 2004, published 2007).

System: oedemas in rats
Conditions: Pharmazie 43 (1988); cited from earlier work

Row | Compound | Anti-inflammatory activity
1 | Cappaprenol-12 | providing this anti-inflammatory activity
2 | CC(C)=CCC/C(C)=C/CC/C(C)=C/CC/C(C)=C/CC/C(C)=C/CC/C(C)=C/CC/C(C)=C/CC/C(C)=C/CC/C(C)=C/CC/C(C)=C/CC/C(C)=C/CC/C(C)=C/CC/C(C)=C/CC/C(C)=C/CO [Cappaprenol-14] | providing this anti-inflammatory activity
3 | CC(C)=CCC/C(C)=C/CC/C(C)=C/CC/C(C)=C/CC/C(C)=C\CC/C(C)=C\CC/C(C)=C\CC/C(C)=C\CC/C(C)=C\CC/C(C)=C\CC/C(C)=C\CC/C(C)=C\CC/C(C)=C\CO [Cappaprenol-13] | providing this anti-inflammatory activity
